The text below walks through data of patent US20070232492A1, “Herbicidal Composition” (Ishihara Sangyo Kaisha, LTD., priority 2004, published 2007).

SMILES strings stand for the structures. Where two headings read alike, the source gives them in different places.

What all share (format): in vivo
The subject of experiment [1] is barnyardgrass (Echinochloa oryzicola vasing). In words: Growth inhibition of barnyardgrass in paddy soil pots, application under submerged condition, visual rating (observed value) and Colby expected value. To be noted: for inhibition at 500 g/ha: 5 g/a; for inhibition at 1000 g/ha: 10 g/a.
Text: (§1) When the herbicidal activity in a case where two active ingredients are combined, is larger than the simple sum of the respective herbicidal activities of the two active ingredients (the expected activity), it is called a synergistic effect. The activity expected by the combination of two active ingredients can be calculated as follows (Colby S. R., “Weed”, vol. 15, p. 20-22, 1967). E=p+q−(p×q÷100) where p: growth inhibition rate when treated with x (g/a) of herbicide X,
(§2) q: growth inhibition rate when treated with y (g/a) of herbicide Y,
(§3) E: growth inhibition rate expected when treated with x (g/a) of herbicide X and y (g/a) of herbicide Y.
(§4) Namely, when the actual growth inhibition rate (observed value) is larger than the growth inhibition rate by the above calculation (expected value), the activity by the combination can be regarded as showing a synergistic effect.
Paddy field soil was put into a 1/10,000 are pot, and seeds of barnyardgrass (Echinochloa oryzicola vasing) were sown and left to stand under an irrigated condition with a water depth of 3.5 cm. When barnyardgrass reached 2.0 to 2.5 leaf stage, wettable powders of compound A2 and compound (B1.1) were, respectively, diluted with water and applied under submerged condition so that the active ingredients became the prescribed amounts, respectively. The state of growth was visually observed 21 days after application, and the growth inhibition rate (%) evaluated in accordance with the following evaluation standard (observed value) and the growth inhibition rate (%) calculated by the above-mentioned Colby method (expected value) are shown in Table 1.
(§5) Growth inhibition rate (%)=0% (equivalent to the non-treated area) to 100% (complete kill)
(§6) Paddy field soil was put into a 1/10,000 are pot, and seeds of barnyardgrass (Echinochloa oryzicola vasing) were sown and left to stand under an irrigated condition with a water depth of 3.5 cm. When barnyardgrass reached 2.0 to 2.5 leaf stage, wettable powders of compound A2 and compound (B2.1) were, respectively, diluted with water and applied under submerged condition so that the active ingredients became the prescribed amounts, respectively. The state of growth was visually observed 21 days after application, and evaluation and calculation were carried out in the same manner as in the above Test Example 1.
as §6, with “leaf stage, a wettable powder” for “leaf stage, wettable powders”, “a wettable powder of compound” for “stage, wettable powders of compound”, “A2 and an emulsifiable concentrate of compound (B3.1)” for “A2 and compound (B2.1)”, “of compound (B3.1) were, respectively,” for “and compound (B2.1) were, respectively,”
as §6, with “(B4.1)” for “(B2.1)”
Paddy field soil was put into a 1/10,000 are pot, and seeds of barnyardgrass (Echinochloa oryzicola vasing) were sown and left to stand under an irrigated condition with a water depth of 3.5 cm. […]

Experiment [2] relates to flatsedge (Cyperus serotinus). The experiment can be described thus: Growth inhibition of flatsedge (planted tubers) in paddy soil pots, application under submerged condition, visual rating and Colby expected value.
Text: as §1, §2, §3, §4, §5
Paddy field soil was put into a 1/10,000 are pot, and tubers of flatsedge (Cyperus serotinus) were planted and left to stand under an irrigated condition with a water depth of 3.5 cm. When flatsedge reached 2.8 to 3.2 leaf stage, wettable powders of compound A2 and compound (B1.2) were, respectively, diluted with water and applied under submerged condition so that the active ingredients became the prescribed amounts, respectively. The state of growth was visually observed 29 days after application, and evaluation and calculation were carried out in the same manner as in the above Test Example 1.
Paddy field soil was put into a 1/3,000 are pot, and tubers of flatsedge (Cyperus serotinus) were planted and left to stand under an irrigated condition with a water depth of 3.5 cm. When flatsedge reached 4 leaf stage, a wettable powder of compound A2 and an emulsifiable concentrate of compound C4 were, respectively, diluted with water and applied under submerged condition so that the active ingredients became the prescribed amounts, respectively. The state of growth was visually observed 21 days after application, and the growth inhibition rate (%) evaluated in the same manner as in the above Test Example 1 (observed value) and the growth inhibition rate (%) calculated by the above-mentioned Colby method (expected value) are shown in Table 32.
Paddy field soil was put into a 1/10,000 are pot, and tubers of flatsedge (Cyperus serotinus) were planted and left to stand under an irrigated condition with a water depth of 3.5 cm. When flatsedge reached 2.5 to 3.0 leaf stage, wettable powders of compound A2, compound (D2.3) and compound (B4.1) were, respectively, diluted with water and applied under submerged condition so that the active ingredients became the prescribed amounts, respectively. The state of growth was visually observed 30 days after application, and evaluated in the same manner as in the above Test Example 1.
Paddy field soil was put into a 1/10,000 are pot, and tubers of flatsedge (Cyperus serotinus) were planted and left to stand under an irrigated condition with a water depth of 3.5 cm. When flatsedge reached 2.5 to 3.0 leaf stage, wettable powders of compound A2, compound (D2.3) and compound (B6.1) were, respectively, diluted with water and applied under submerged condition so that the active ingredients became the prescribed amounts, respectively. The state of growth was visually observed 30 days after application, and evaluated in the same manner as in the above Test Example 1.
Paddy field soil was put into a 1/10,000 are pot, and tubers of flatsedge (Cyperus serotinus) were planted and left to stand under an irrigated condition with a water depth of 3.5 cm. When flatsedge reached 2.5 to 3.0 leaf stage, wettable powders of compound A2, compound (D2.3) and compound (B8.1) were, respectively, diluted with water and applied under submerged condition so that the active ingredients became the prescribed amounts, respectively. […]

Experiment [3] relates to Japanese bulrush (Scirpus juncoides). The experiment can be described thus: Growth inhibition of Japanese bulrush in paddy soil pots, application under submerged condition, visual rating and Colby expected value. The note with it: 2 leaf stage, 19 days after application.
Text: as §1, §2, §3, §4, §5
(§7) Paddy field soil was put into a 1/10,000 are pot, and seeds of Japanese bulrush (Scirpus juncoides) were sown and left to stand under an irrigated condition with a water depth of 3.5 cm. When Japanese bulrush reached 2.3 to 2.6 leaf stage, a wettable powder of compound A2 and granules of compound (B7.1) were, respectively, diluted with water and applied under submerged condition so that the active ingredients became the prescribed amounts, respectively. The state of growth was visually observed 10 days after application, and evaluation and calculation were carried out in the same manner as in the above Test Example 1.
as §7, with “an emulsifiable concentrate” for “granules”, “(B3.1)” for “(B7.1)”
Paddy field soil was put into a 1/10,000 are pot, and seeds of Japanese bulrush (Scirpus juncoides) were sown and left to stand under an irrigated condition with a water depth of 3.5 cm. When Japanese bulrush reached 2 leaf stage, wettable powders of compound A2, C2 and C4 and granules of compound C6 were, respectively, diluted with water and applied under submerged condition so that the active ingredients became the prescribed amounts, respectively.
Paddy field soil was put into a 1/10,000 are pot, and seeds of Japanese bulrush (Scirpus juncoides) were sown and left to stand under an irrigated condition with a water depth of 3.5 cm. When Japanese bulrush reached 2 leaf stage, wettable powders of compound A2, C2 and C4 and granules of compound C6 were, respectively, diluted with water and applied under submerged condition so that the active ingredients became the prescribed amounts, respectively. The state of growth was visually observed 19 days after application, and the growth inhibition rate (%) evaluated in the same manner as in the above Test Example 1 (observed value) and the growth inhibition rate (%) calculated by the above-mentioned Colby method (expected value) are shown in Tables 36, 37 and 38.
Paddy field soil was put into a 1/10,000 are pot, and seeds of Japanese bulrush (Scirpus juncoides) were sown and left to stand under an irrigated condition with a water depth of 3.5 cm. When Japanese bulrush reached 3 leaf stage, wettable powders of compound A2 and compound (D2.2) were, respectively, diluted with water and applied under submerged condition so that the active ingredients became the prescribed amounts, respectively. […]

The mark [4] stands for this setting: Echinochloa oryzicola, soil, 336 h, 2.8 to 3.4 leaf stage, 14 days after application, Test Examples 66-72, read-out: Growth inhibition rate (%) Observed.
Where [5] appears, read: Echinochloa oryzicola, soil, 504 h, 2.0 to 2.5 leaf stage, 21 days after application, read-out: Growth inhibition rate (%) Observed.

As a reminder, the inhibition is the share of the control response that was lost under treatment.

`CC(C)(NC(=O)C(Br)C(C)(C)C)c1ccccc1` (stereo not drawn) [Compound (B6.1), bromobutide]: the inhibition at 500 g/ha in experiment [1] (setting [4]) was determined as 10%; in experiment [1] (setting [5]) it was 0%. Also, the inhibition at 1000 g/ha was 10% in experiment [1] (setting [4]); 10% in experiment [1] (setting [5]); 35% in experiment [2] (Cyperus serotinus, soil, 720 h, read-out: Growth inhibition rate (%) Observed).

Take `CCOC(=O)CCCOc1ccc(Cl)cc1C` [Compound C4, MCPB ethyl]: the “Growth inhibition rate (%) Observed” value in experiment [2] (2.0 g/a, 4 leaf stage, 21 days after application) is reported as 33%; in experiment [2] (2.4 g/a, 4 leaf stage, 21 days after application), 57%; in experiment [3] (0.5 g/a, Test Example 33), 10%; in experiment [3] (1.0 g/a, Test Example 33), 27%; in experiment [3] (1.5 g/a, Test Example 34), 20%; in experiment [3] (2.0 g/a, Test Example 33) it was 55%. The “Growth inhibition rate (%) Observed” value in experiment [3] (10 g/a, Test Example 34) is 68%.

Take `CCC1(CC2(c3cccc(Cl)c3)CO2)C(=O)c2ccccc2C1=O` (stereo not drawn) [Compound (B10.1), indanofan]: the inhibition at 37.5 g/ha in experiment [1] (Echinochloa oryzicola, soil, 504 h, 0.375 g/a, 2.8 to 3.2 leaf stage, 21 days after application, read-out: Growth inhibition rate (%) Observed) amounted to 0%. In addition, in experiment [1] (Echinochloa oryzicola, soil, 504 h, 0.75 g/a, 2.8 to 3.2 leaf stage, 21 days after application, read-out: Growth inhibition rate (%) Observed), the inhibition at 75 g/ha was found to be 13%. In addition, in experiment [1] (Echinochloa oryzicola, soil, 528 h, 0.563 g/a, 2.1 to 3.2 leaf stage, 22 days after application, read-out: Growth inhibition rate (%) Observed), the inhibition at 56.3 g/ha came out at 40%. For the same compound, the inhibition at 150 g/ha in experiment [2] (Cyperus serotinus, soil, 720 h, 1.5 g/a, 2.5 to 3.0 leaf stage, 30 days after application, Test Examples 46-60, read-out: Growth inhibition rate (%) Observed) was found to be 25%.

`CS(=O)(=O)c1ccc(C(=O)C2=C(Sc3ccccc3)C3CCC(C3)C2=O)c(Cl)c1` (stereo not drawn) [Compound (B4.1), benzobicyclon]: the inhibition at 100 g/ha in experiment [1] (Echinochloa oryzicola, soil, 504 h, 1 g/a, 2.0 to 2.5 leaf stage, 21 days after application, read-out: Growth inhibition rate (%) Observed) came out at 13%. In addition, the inhibition at 200 g/ha in experiment [1] (Echinochloa oryzicola, soil, 504 h, 2 g/a, 2.0 to 2.5 leaf stage, 21 days after application, read-out: Growth inhibition rate (%) Observed) was 33%; in experiment [2] (Cyperus serotinus, soil, 720 h, 2 g/a, 2.5 to 3.0 leaf stage, 30 days after application, Test Examples 46-60, read-out: Growth inhibition rate (%) Observed) it was 60%.

Regarding `CCN(CC)C(=O)n1cnc(S(=O)(=O)c2c(C)cc(C)cc2C)n1` [Compound (B9.1), cafenstrole], the “Growth inhibition rate (%) Observed” value in experiment [1] (0.525 g/a, 2.8 to 3.2 leaf stage, 21 days after application) came out at 2%; in experiment [1] (0.788 g/a, 2.1 to 3.2 leaf stage, 21 days after application) it was 57%; in experiment [1] (0.788 g/a, 2.8 to 3.2 leaf stage, 19 days after application, Test Examples 62-65), 10%; in experiment [1] (1.05 g/a, 2.8 to 3.2 leaf stage, 21 days after application) it was 10%; in experiment [1] (1.58 g/a, 2.8 to 3.2 leaf stage, 19 days after application, Test Examples 62-65) it was 10%; in experiment [2] (2.1 g/a, 2.5 to 3.0 leaf stage, 30 days after application, Test Examples 46-60), 35%.

As for `COc1ccsc1CN(C(=O)CCl)c1c(C)cccc1C` [Compound (B3.2), thenylchlor], the inhibition at 93.8 g/ha in experiment [1] (Echinochloa oryzicola, soil, 504 h, 0.938 g/a, 2.8 to 3.2 leaf stage, 21 days after application, read-out: Growth inhibition rate (%) Observed) was determined as 5%. Further, in experiment [1] (Echinochloa oryzicola, soil, 504 h, 0.94 g/a, 2.8 to 3.2 leaf stage, 21 days after application, Test Examples 39-43, read-out: Growth inhibition rate (%) Observed), the inhibition at 94 g/ha is 0%. For the same compound, the inhibition at 187.5 g/ha in experiment [1] (Echinochloa oryzicola, soil, 504 h, 1.875 g/a, 2.8 to 3.2 leaf stage, 21 days after application, read-out: Growth inhibition rate (%) Observed) came to 27%. Also, in experiment [1] (Echinochloa oryzicola, soil, 504 h, 1.88 g/a, 2.8 to 3.2 leaf stage, 21 days after application, Test Examples 39-43, read-out: Growth inhibition rate (%) Observed), the inhibition at 188 g/ha turned out to be 15%. Also, the inhibition at 250 g/ha in experiment [2] (Cyperus serotinus, soil, 720 h, 2.5 g/a, 2.5 to 3.0 leaf stage, 30 days after application, Test Examples 46-60, read-out: Growth inhibition rate (%) Observed) was 35%.
